Reference: patent publication US20060263802A1 (priority 2003, published 2006)

How the values were obtained:
Assay type in all cases: binding
[1] = system: human monoclonal antibody CRJB
[2] = system: human monoclonal antibody CRJA
[3] = system: human monoclonal antibody CRJA; remark: listed apart in the source
[4] = system: human monoclonal antibody CRJB; remark: listed apart in the source
[5] = system: human monoclonal antibody CR57
[6] = system: human monoclonal antibody CR57; remark: listed apart in the source

## FVDERGLYKSLKGAC
[1]
  Binding of CRJB to linear peptide (PEPSCAN-ELISA signal): 121
[2]
  Binding of CRJA to linear peptide (PEPSCAN-ELISA signal): 116
[3]
  Binding of CRJA (10 μg/ml) to looped/cyclic peptide (PEPSCAN-ELISA): 92
[4]
  Binding of CRJB (10 μg/ml) to looped/cyclic peptide (PEPSCAN-ELISA): 79
[5]
  Binding of CR57 (10 μg/ml) to looped/cyclic peptide (PEPSCAN-ELISA): 97
[6]
  Binding of CR57 to linear peptide (PEPSCAN-ELISA signal): 86

## QTSNETKWCPPDQLV
[1]
  Binding of CRJB to linear peptide (PEPSCAN-ELISA signal): 120
[2]
  Binding of CRJA to linear peptide (PEPSCAN-ELISA signal): 90
[3]
  Binding of CRJA (10 μg/ml) to looped/cyclic peptide (PEPSCAN-ELISA): 106
[4]
  Binding of CRJB (10 μg/ml) to looped/cyclic peptide (PEPSCAN-ELISA): 62
[5]
  Binding of CR57 (10 μg/ml) to looped/cyclic peptide (PEPSCAN-ELISA): 118
[6]
  Binding of CR57 to linear peptide (PEPSCAN-ELISA signal): 92

## NWKMAGDPRYEESLH
[1]
  Binding of CRJB to linear peptide (PEPSCAN-ELISA signal): 101
[2]
  Binding of CRJA to linear peptide (PEPSCAN-ELISA signal): 69
[3]
  Binding of CRJA (10 μg/ml) to looped/cyclic peptide (PEPSCAN-ELISA signal): 93
[4]
  Binding of CRJB (10 μg/ml) to looped/cyclic peptide (PEPSCAN-ELISA signal): 78
[5]
  Binding of CR57 (10 μg/ml) to looped/cyclic peptide (PEPSCAN-ELISA signal): 94
[6]
  Binding of CR57 to linear peptide (PEPSCAN-ELISA signal): 58

## VRTWNEILPSKGCLR
[1]
  Binding of CRJB to linear peptide (PEPSCAN-ELISA signal): 124
[2]
  Binding of CRJA to linear peptide (PEPSCAN-ELISA signal): 105
[3]
  Binding of CRJA (10 μg/ml) to looped/cyclic peptide (PEPSCAN-ELISA): 114
[4]
  Binding of CRJB (10 μg/ml) to looped/cyclic peptide (PEPSCAN-ELISA): 98
[5]
  Binding of CR57 (10 μg/ml) to looped/cyclic peptide (PEPSCAN-ELISA): 121
[6]
  Binding of CR57 to linear peptide (PEPSCAN-ELISA signal): 90

## LQQHMELLESSVIPL
[1]
  Binding of CRJB to linear peptide (PEPSCAN-ELISA signal): 134
[2]
  Binding of CRJA to linear peptide (PEPSCAN-ELISA signal): 91
[3]
  Binding of CRJA (10 μg/ml) to looped/cyclic peptide (PEPSCAN-ELISA): 108
[4]
  Binding of CRJB (10 μg/ml) to looped/cyclic peptide (PEPSCAN-ELISA): 93
[5]
  Binding of CR57 (10 μg/ml) to looped/cyclic peptide (PEPSCAN-ELISA): 136
[6]
  Binding of CR57 to linear peptide (PEPSCAN-ELISA signal): 106

## HPHVNGVFFNGIILG
[1]
  Binding of CRJB to linear peptide (PEPSCAN-ELISA signal): 138
[2]
  Binding of CRJA to linear peptide (PEPSCAN-ELISA signal): 89
[3]
  Binding of CRJA (10 μg/ml) to looped/cyclic peptide (PEPSCAN-ELISA): 91
[4]
  Binding of CRJB (10 μg/ml) to looped/cyclic peptide (PEPSCAN-ELISA): 99
[5]
  Binding of CR57 (10 μg/ml) to looped/cyclic peptide (PEPSCAN-ELISA): 104
[6]
  Binding of CR57 to linear peptide (PEPSCAN-ELISA signal): 104

## TYCSTNHDYTIWMPE
[1]
  Binding of CRJB to linear peptide (PEPSCAN-ELISA signal): 107
[2]
  Binding of CRJA to linear peptide (PEPSCAN-ELISA signal): 87
[3]
  Binding of CRJA (10 μg/ml) to looped/cyclic peptide (PEPSCAN-ELISA signal): 97
[4]
  Binding of CRJB (10 μg/ml) to looped/cyclic peptide (PEPSCAN-ELISA signal): 93
[5]
  Binding of CR57 (10 μg/ml) to looped/cyclic peptide (PEPSCAN-ELISA signal): 104
[6]
  Binding of CR57 to linear peptide (PEPSCAN-ELISA signal): 96

## FTCTGVVTEAENYTN
[1]
  Binding of CRJB to linear peptide (PEPSCAN-ELISA signal): 125
[2]
  Binding of CRJA to linear peptide (PEPSCAN-ELISA signal): 91
[3]
  Binding of CRJA (10 μg/ml) to looped/cyclic peptide (PEPSCAN-ELISA signal): 96
[4]
  Binding of CRJB (10 μg/ml) to looped/cyclic peptide (PEPSCAN-ELISA signal): 96
[5]
  Binding of CR57 (10 μg/ml) to looped/cyclic peptide (PEPSCAN-ELISA signal): 123
[6]
  Binding of CR57 to linear peptide (PEPSCAN-ELISA signal): 83

## SHLRKLVPGFGKAYT
[1]
  Binding of CRJB to linear peptide (PEPSCAN-ELISA signal): 132
[2]
  Binding of CRJA to linear peptide (PEPSCAN-ELISA signal): 118
[3]
  Binding of CRJA (10 μg/ml) to looped/cyclic peptide (PEPSCAN-ELISA): 160
[4]
  Binding of CRJB (10 μg/ml) to looped/cyclic peptide (PEPSCAN-ELISA): 103
[5]
  Binding of CR57 (10 μg/ml) to looped/cyclic peptide (PEPSCAN-ELISA): 143
[6]
  Binding of CR57 to linear peptide (PEPSCAN-ELISA signal): 113

## MTTKSVSFRRLSHLR
[1]
  Binding of CRJB to linear peptide (PEPSCAN-ELISA signal): 116
[2]
  Binding of CRJA to linear peptide (PEPSCAN-ELISA signal): 74
[3]
  Binding of CRJA (10 μg/ml) to looped/cyclic peptide (PEPSCAN-ELISA): 79
[4]
  Binding of CRJB (10 μg/ml) to looped/cyclic peptide (PEPSCAN-ELISA): 8
[5]
  Binding of CR57 (10 μg/ml) to looped/cyclic peptide (PEPSCAN-ELISA): 68
[6]
  Binding of CR57 to linear peptide (PEPSCAN-ELISA signal): 59

## ADAHYKSVRTWNEIL
[1]
  Binding of CRJB to linear peptide (PEPSCAN-ELISA signal): 100
[2]
  Binding of CRJA to linear peptide (PEPSCAN-ELISA signal): 93
[3]
  Binding of CRJA (10 μg/ml) to looped/cyclic peptide (PEPSCAN-ELISA): 90
[4]
  Binding of CRJB (10 μg/ml) to looped/cyclic peptide (PEPSCAN-ELISA): 82
[5]
  Binding of CR57 (10 μg/ml) to looped/cyclic peptide (PEPSCAN-ELISA): 69
[6]
  Binding of CR57 to linear peptide (PEPSCAN-ELISA signal): 56

## SGKCSGVAVSSTYCS
[1]
  Binding of CRJB to linear peptide (PEPSCAN-ELISA signal): 121
[2]
  Binding of CRJA to linear peptide (PEPSCAN-ELISA signal): 65
[3]
  Binding of CRJA (10 μg/ml) to looped/cyclic peptide (PEPSCAN-ELISA signal): 85
[4]
  Binding of CRJB (10 μg/ml) to looped/cyclic peptide (PEPSCAN-ELISA signal): 57
[5]
  Binding of CR57 (10 μg/ml) to looped/cyclic peptide (PEPSCAN-ELISA signal): 77
[6]
  Binding of CR57 to linear peptide (PEPSCAN-ELISA signal): 64
